These results are taken from PubChem BioAssay AID256 (DTP/NCI, 2004).

Where “and” joins values, the source holds several entries; their conditions need not be identical. Equal entries are not always repeated. Toxic doses and inconclusive results are not listed. Residues, ends and D or L forms follow the SMILES beside them. *: point of attachment. Trt = c1ccc(C(c2ccccc2)(c2ccccc2)*)cc1; Cbz = O=C(OCc1ccccc1)*; Bn = c1ccc(C*)cc1; βAla = NCCC(=O)O

This experiment has as its system CD2F1 mice, L1210 leukemia ip, survival T/C. Description: NCI In Vivo Anticancer Drug Screen. Data for tumor model L1210 Leukemia (intraperitoneal) in CD2F1 (CDF1) mice. The settings on record: higher = longer survival. The method in brief: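 Ratio T/C, where T is the treated-group value and C the vehicle-dosed control value, from mice implanted with a transplantable tumor.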

Where [1] appears, read: endpoint: mean survival time, dose: 100.0 mg/kg/injection, schedule: Q04DX003 (ip), vehicle: saline with Tween-80.
Setting [2] is: endpoint: mean survival time, dose: 200.0 mg/kg/injection, schedule: Q04DX003 (ip), vehicle: saline with Tween-80.
Setting [3] is: endpoint: mean survival time, dose: 400.0 mg/kg/injection, schedule: Q04DX003 (ip), vehicle: saline with Tween-80.
[4] abbreviates: endpoint: median survival time, dose: 25.0 mg/kg/injection, schedule: Q01DX009 (ip), vehicle: saline with Tween-80.
Where [5] appears, read: endpoint: median survival time, dose: 50.0 mg/kg/injection, schedule: Q01DX009 (ip), vehicle: saline with Tween-80.
Setting [6] is: endpoint: mean survival time, dose: 100.0 mg/kg/injection, schedule: Q04DX003 (ip), vehicle: saline.
[7] abbreviates: endpoint: mean survival time, dose: 200.0 mg/kg/injection, schedule: Q04DX003 (ip), vehicle: saline.

Turning to `CN(N)c1nc2c(=O)[nH]c(N)nc2n1C1OC(CO)C(O)C1O` (centres undefined), the T/C reads like this: (endpoint: mean survival time, dose: 1.56 mg/kg/injection, schedule: Q01DX005 (ip), vehicle: water) 101 % of control; (endpoint: mean survival time, dose: 3.12 mg/kg/injection, schedule: Q01DX005 (ip), vehicle: water) 101 % of control; (endpoint: mean survival time, dose: 6.25 mg/kg/injection, schedule: Q01DX005 (ip), vehicle: water) 101 % of control; (endpoint: mean survival time, dose: 12.5 mg/kg/injection, schedule: Q01DX005 (ip), vehicle: water) 98 % of control; (endpoint: mean survival time, dose: 25.0 mg/kg/injection, schedule: Q01DX005 (ip), vehicle: water) 103 % of control.
As for `CC(CCC(=O)O)(c1ccc(O)cc1)c1ccc(O)cc1`, the T/C (endpoint: mean survival time, dose: 100.0 mg/kg/injection, schedule: Q01DX009 (ip), vehicle: other) was 91 % of control; the T/C (endpoint: mean survival time, dose: 200.0 mg/kg/injection, schedule: Q01DX009 (ip), vehicle: other) is 101 % of control; the T/C (endpoint: mean survival time, dose: 400.0 mg/kg/injection, schedule: Q01DX009 (ip), vehicle: other) was 97 % of control.
On to `Cn1c(=O)[nH]c2c(nc(-c3ccc4c(c3)OCO4)n2C)c1=O`, for which the T/C is 100 % of control (endpoint: mean survival time, dose: 7.8 mg/kg/injection, schedule: Q01DX005 (ip), vehicle: other); 95 % of control (endpoint: mean survival time, dose: 15.6 mg/kg/injection, schedule: Q01DX005 (ip), vehicle: other); 100 % of control (endpoint: mean survival time, dose: 31.3 mg/kg/injection, schedule: Q01DX005 (ip), vehicle: other); 103 % of control (endpoint: mean survival time, dose: 62.5 mg/kg/injection, schedule: Q01DX005 (ip), vehicle: other).
In the case of `O=C(O)c1ccccn1`, the T/C reads like this: (endpoint: mean survival time, dose: 50.0 mg/kg/injection, schedule: Q04HX027 (ip), vehicle: saline) 102 % of control; (endpoint: mean survival time, dose: 100.0 mg/kg/injection, schedule: Q04HX027 (ip), vehicle: saline) 93 % of control.
As for `c1ccc(C2=NN(c3ccccc3)CN(c3ccccc3)N2)cc1`, the T/C was 106 % of control (endpoint: mean survival time, dose: 100.0 mg/kg/injection, schedule: Q01DX009 (ip), vehicle: saline with Tween-80); 97 % of control (endpoint: mean survival time, dose: 200.0 mg/kg/injection, schedule: Q01DX009 (ip), vehicle: saline with Tween-80); 96 % of control (endpoint: mean survival time, dose: 400.0 mg/kg/injection, schedule: Q01DX009 (ip), vehicle: saline with Tween-80).
On to `O=C(O)CS` (tested in a mixture with another compound), for which the T/C is 102 % of control (endpoint: mean survival time, dose: 12.5 mg/kg/injection, schedule: Q01DX009 (ip), vehicle: saline); 93 % of control (endpoint: mean survival time, dose: 25.0 mg/kg/injection, schedule: Q01DX009 (ip), vehicle: saline); 93 % of control (endpoint: mean survival time, dose: 100.0 mg/kg/injection, schedule: Q01DX009 (ip), vehicle: saline).
With `Cc1cc(Cl)ccc1N=Cc1ccc2c(c1)OCO2`, the T/C is 95 % of control (endpoint: mean survival time, dose: 100.0 mg/kg/injection, schedule: Q01DX001 (ip), vehicle: Klucel (hydroxypropylcellulose) (HPC)); 108 % of control (endpoint: mean survival time, dose: 100.0 mg/kg/injection, schedule: Q01DX009 (ip), vehicle: Klucel (hydroxypropylcellulose) (HPC)); 102 % of control (endpoint: mean survival time, dose: 200.0 mg/kg/injection, schedule: Q01DX001 (ip), vehicle: Klucel (hydroxypropylcellulose) (HPC)); 105 % of control (endpoint: mean survival time, dose: 200.0 mg/kg/injection, schedule: Q01DX009 (ip), vehicle: Klucel (hydroxypropylcellulose) (HPC)); 95 % of control (endpoint: mean survival time, dose: 400.0 mg/kg/injection, schedule: Q01DX001 (ip), vehicle: Klucel (hydroxypropylcellulose) (HPC)); 98 % of control (endpoint: mean survival time, dose: 400.0 mg/kg/injection, schedule: Q01DX009 (ip), vehicle: Klucel (hydroxypropylcellulose) (HPC)).
`Nc1nc(N)c2ncn(Cc3ccccc3)c2n1`: the T/C by setting is: under setting [1], 98 % of control; under setting [2], 93 % of control; under setting [3], 100 % of control.
Regarding `CC(O)C1(O)C(O)CC(OC2c3cc4c(c(O)c3[C@@H]3C[C@@]2(C)OC32C=c3cc[nH]c3=N2)C(=O)c2cccc(O)c2C4=O)OC1C` (some centres undefined), the T/C reads like this: (endpoint: median survival time, dose: 6.25 mg/kg/injection, schedule: Q01DX009 (ip), vehicle: saline with Tween-80) 114 % of control; (endpoint: median survival time, dose: 12.5 mg/kg/injection, schedule: Q01DX009 (ip), vehicle: saline with Tween-80) 118 % of control; under setting [4], 113 % of control; under setting [5], 97 % of control.
On to `Cc1cc[n+](-c2c3c(nc4ccccc24)-c2ccccc2C(C)(C)C3)cc1`, for which the T/C reads like this: (endpoint: mean survival time, dose: 25.0 mg/kg/injection, schedule: Q04DX003 (ip), vehicle: saline sonified) 96 % of control; (endpoint: mean survival time, dose: 50.0 mg/kg/injection, schedule: Q04DX003 (ip), vehicle: saline sonified) 102 % of control; (endpoint: mean survival time, dose: 100.0 mg/kg/injection, schedule: Q01DX001 (ip), vehicle: saline with Tween-80) 96 % of control.
In the case of `CCCCn1cnc2c(=S)nc[nH]c21`, the T/C was 118 % of control and 105 % of control (endpoint: mean survival time, dose: 32.0 mg/kg/injection, schedule: Q01DX009 (ip), vehicle: saline); 112 % of control and 115 % of control (endpoint: mean survival time, dose: 64.0 mg/kg/injection, schedule: Q01DX009 (ip), vehicle: saline); 113 % of control (endpoint: mean survival time, dose: 100.0 mg/kg/injection, schedule: Q01DX007 (ip), vehicle: saline); 102 % of control (endpoint: mean survival time, dose: 100.0 mg/kg/injection, schedule: Q03DX003 (ip), vehicle: saline); 97 % of control under setting [6]; 118 % of control (endpoint: mean survival time, dose: 128.0 mg/kg/injection, schedule: Q01DX009 (ip), vehicle: saline). Besides, the T/C is 162 % of control (endpoint: mean survival time, dose: 200.0 mg/kg/injection, schedule: Q01DX007 (ip), vehicle: saline); 165 % of control (endpoint: mean survival time, dose: 200.0 mg/kg/injection, schedule: Q01DX009 (ip), vehicle: saline); 122 % of control (endpoint: mean survival time, dose: 200.0 mg/kg/injection, schedule: Q03DX003 (ip), vehicle: saline); 118 % of control under setting [7]; 153 % of control and 169 % of control (endpoint: mean survival time, dose: 256.0 mg/kg/injection, schedule: Q01DX009 (ip), vehicle: saline); 115 % of control (endpoint: mean survival time, dose: 400.0 mg/kg/injection, schedule: Q01DX007 (ip), vehicle: saline). The T/C reads like this: (endpoint: mean survival time, dose: 400.0 mg/kg/injection, schedule: Q01DX009 (ip), vehicle: saline) 102 % of control; (endpoint: mean survival time, dose: 400.0 mg/kg/injection, schedule: Q03DX003 (ip), vehicle: saline) 168 % of control; (endpoint: mean survival time, dose: 400.0 mg/kg/injection, schedule: Q04DX003 (ip), vehicle: saline) 163 % of control; under setting [4], 124 % of control and 107 % of control; under setting [5], 122 % of control; (endpoint: median survival time, dose: 100.0 mg/kg/injection, schedule: Q01DX009 (ip), vehicle: saline with Tween-80) 164 % of control. Besides, the T/C reads like this: (endpoint: median survival time, dose: 200.0 mg/kg/injection, schedule: Q01DX009 (ip), vehicle: saline with Tween-80) 154 % of control and 164 % of control; (endpoint: median survival time, dose: 400.0 mg/kg/injection, schedule: Q01DX009 (ip), vehicle: saline with Tween-80) 122 % of control.
Regarding `COP1(=O)OCC(C(C)(C)C)CO1` (centres undefined), the T/C reads like this: (endpoint: mean survival time, dose: 12.5 mg/kg/injection, schedule: Q04DX002 (ip), vehicle: saline) 103 % of control; (endpoint: mean survival time, dose: 25.0 mg/kg/injection, schedule: Q04DX002 (ip), vehicle: saline) 88 % of control.
As for `CCC(C)CNCCO` (centres undefined), the T/C is 100 % of control under setting [6] and 95 % of control under setting [7].
Take `O=C(CC(NC(=O)OCc1ccccc1)c1nn[nH]n1)OCc1ccccc1` (centres undefined): the T/C was 86 % of control under setting [1], 94 % of control under setting [2] and 91 % of control under setting [3].
As to `COC(=O)C(CSC(c1ccccc1)(c1ccccc1)c1ccccc1)NC(=O)C(CSCc1ccccc1)NC(=O)CCNC(=O)OCc1ccccc1` (centres undefined) ({Cbz-βAla}-Cys(Bn)-Cys(Trt)-OMe; configuration not given here), the T/C is, setting by setting: (endpoint: median survival time, dose: 12.5 mg/kg/injection, schedule: Q01DX009 (ip), vehicle: Klucel (hydroxypropylcellulose) (HPC)) 101 % of control; (endpoint: median survival time, dose: 25.0 mg/kg/injection, schedule: Q01DX009 (ip), vehicle: Klucel (hydroxypropylcellulose) (HPC)) 101 % of control; (endpoint: median survival time, dose: 50.0 mg/kg/injection, schedule: Q01DX009 (ip), vehicle: Klucel (hydroxypropylcellulose) (HPC)) 101 % of control; (endpoint: median survival time, dose: 100.0 mg/kg/injection, schedule: Q01DX009 (ip), vehicle: Klucel (hydroxypropylcellulose) (HPC)) 108 % of control; (endpoint: median survival time, dose: 200.0 mg/kg/injection, schedule: Q01DX009 (ip), vehicle: Klucel (hydroxypropylcellulose) (HPC)) 103 % of control.
As for `[Cl-].[NH-]CCN(CC[NH-])CCN.[O-][Cl+3]([O-])([O-])O.[O-][Cl+3]([O-])([O-])O.[Pt+2]`, where the note is “endpoint: mean survival time, dose: 12.5 mg/kg/injection, schedule: Q04DX003 (ip), vehicle: saline with Tween-80”, the T/C is 97 % of control.
